Test results published in publication PMC5298231, “The Malaria Parasite's Lactate Transporter PfFNT Is the Target of Antiplasmodial Compounds Identified in Whole Cell Phenotypic Screens” (PLoS Pathogens, 2017).
Read-outs that look alike come from different tables or passages of the source.

System: erythrocytes infected with 3D7 trophozoites
Format: cell-based, Plasmodium falciparum
Settings: 6 μM

COc1ccc2c(c1)OC(O)(C(F)(F)C(F)(F)F)CC2=O (stereo not shown) [MMV007839]
Serine log2 ratio (+MMV007839/-MMV007839) (Av 3hr): 0.166 | Succinate log2 ratio (+MMV007839/-MMV007839) (Av 3hr): -0.2462 | Succinate semialdehyde log2 ratio (+MMV007839/-MMV007839) (Av 3hr): -0.7119 | TNVK log2 ratio (+MMV007839/-MMV007839) (Av 3hr): -1.745 | Threonine log2 ratio (+MMV007839/-MMV007839) (Av 3hr): 0.01502 | Tryptophan log2 ratio (+MMV007839/-MMV007839) (Av 3hr): -0.2359 | Tyrosine log2 ratio (+MMV007839/-MMV007839) (Av 3hr): -0.01653 | UDP log2 ratio (+MMV007839/-MMV007839) (Av 3hr): -0.7159 | UDP-N-acetyl-D-glucosamine log2 ratio (+MMV007839/-MMV007839) (Av 3hr): 0.05247 | UDP-glucose log2 ratio (+MMV007839/-MMV007839) (Av 3hr): -0.07837 | UMP log2 ratio (+MMV007839/-MMV007839) (Av 3hr): -0.2624 | Uracil log2 ratio (+MMV007839/-MMV007839) (Av 3hr): -0.6081 | Uric Acid log2 ratio (+MMV007839/-MMV007839) (Av 3hr): -0.1135 | VD log2 ratio (+MMV007839/-MMV007839) (Av 3hr): 1.073 | Valine log2 ratio (+MMV007839/-MMV007839) (Av 3hr): -0.194 | Xanthine log2 ratio (+MMV007839/-MMV007839) (Av 3hr): -0.464 | dADP log2 ratio (+MMV007839/-MMV007839) (Av 3hr): -1.193 | dATP log2 ratio (+MMV007839/-MMV007839) (Av 3hr): -0.03116 | dCDP log2 ratio (+MMV007839/-MMV007839) (Av 3hr): 0.3315 | dGMP log2 ratio (+MMV007839/-MMV007839) (Av 3hr): 0.1661 | dTMP log2 ratio (+MMV007839/-MMV007839) (Av 3hr): 0.1316 | dTTP log2 ratio (+MMV007839/-MMV007839) (Av 3hr): -0.08156 | dUMP log2 ratio (+MMV007839/-MMV007839) (Av 3hr): 1.365 | myo-Inositol log2 ratio (+MMV007839/-MMV007839) (Av 3hr): -0.258 | sn-Glycerol 3-phosphate log2 ratio (+MMV007839/-MMV007839) (Av 3hr): 1.559 | sn-glycero-3-Phospho-1-inositol log2 ratio (+MMV007839/-MMV007839) (Av 3hr): 0.1698 | Hexose-phosphate log2 ratio (+MMV007839/-MMV007839) (Av 3hr, medRt 15.0954): -0.3219 | 6-Phospho-D-gluconate log2 ratio (+MMV007839/-MMV007839) (Av 3hr, medRt 16.8944): -0.6275 | Hexose-phosphate log2 ratio (+MMV007839/-MMV007839) (Av 3hr, medRt 17.0788): -1.577 | 6-Phospho-D-gluconate log2 ratio (+MMV007839/-MMV007839) (Av 3hr, medRt 17.4636): -0.2282 | 1-3 (2-3)-diphopshateglycerate log2 ratio (+MMV007839/-MMV007839) (Av 6hr): 0.3636 | 2-Hydroxyglutarate log2 ratio (+MMV007839/-MMV007839) (Av 6hr): -0.3824 | 2-Ketoglutarate log2 ratio (+MMV007839/-MMV007839) (Av 6hr): -0.4713 | 3-Phosho-D-glycerate log2 ratio (+MMV007839/-MMV007839) (Av 6hr): 0.02516 | 3-Phospho-serine log2 ratio (+MMV007839/-MMV007839) (Av 6hr): -0.6364 | 4-Aminobutanoate log2 ratio (+MMV007839/-MMV007839) (Av 6hr): 1.092 | 5-Phosphoribosyl-1-pyrophosphate log2 ratio (+MMV007839/-MMV007839) (Av 6hr): 0.556 | ADP log2 ratio (+MMV007839/-MMV007839) (Av 6hr): -0.3027 | AMP log2 ratio (+MMV007839/-MMV007839) (Av 6hr): -0.04039 | ATLS log2 ratio (+MMV007839/-MMV007839) (Av 6hr): -0.1601 | ATP log2 ratio (+MMV007839/-MMV007839) (Av 6hr): -0.3608 | Acetyl-CoA log2 ratio (+MMV007839/-MMV007839) (Av 6hr): -0.9886 | Acetyl-L-alanine log2 ratio (+MMV007839/-MMV007839) (Av 6hr): -0.3969 | Adenine log2 ratio (+MMV007839/-MMV007839) (Av 6hr): -0.7079 | Arginine log2 ratio (+MMV007839/-MMV007839) (Av 6hr): 0.2024 | Asparagine log2 ratio (+MMV007839/-MMV007839) (Av 6hr): 0.205 | Aspartic Acid log2 ratio (+MMV007839/-MMV007839) (Av 6hr): -0.08675 | CDP log2 ratio (+MMV007839/-MMV007839) (Av 6hr): -0.2824 | CDP-ethanolamine log2 ratio (+MMV007839/-MMV007839) (Av 6hr): -0.09908 | CMP log2 ratio (+MMV007839/-MMV007839) (Av 6hr): 0.2839 | CTP log2 ratio (+MMV007839/-MMV007839) (Av 6hr): -0.5655 | Cholesteryl sulfate log2 ratio (+MMV007839/-MMV007839) (Av 6hr): -0.1903 | Citrate log2 ratio (+MMV007839/-MMV007839) (Av 6hr): -0.1627 | CoA log2 ratio (+MMV007839/-MMV007839) (Av 6hr): -0.6499 | Cyclic AMP log2 ratio (+MMV007839/-MMV007839) (Av 6hr): -1.349 | Cytidine log2 ratio (+MMV007839/-MMV007839) (Av 6hr): 0.1751 | D-Glucono-1-4-lactone log2 ratio (+MMV007839/-MMV007839) (Av 6hr): 2.219 | DALT log2 ratio (+MMV007839/-MMV007839) (Av 6hr): 0.7209 | DEVG log2 ratio (+MMV007839/-MMV007839) (Av 6hr): -0.06216 | DGLA log2 ratio (+MMV007839/-MMV007839) (Av 6hr): 0.8365 | DLS log2 ratio (+MMV007839/-MMV007839) (Av 6hr): -0.1236 | Deoxycytidine log2 ratio (+MMV007839/-MMV007839) (Av 6hr): 1.626 | Dihydroorotate log2 ratio (+MMV007839/-MMV007839) (Av 6hr): -1.004 | ESFG log2 ratio (+MMV007839/-MMV007839) (Av 6hr): 0.5044 | EVGG log2 ratio (+MMV007839/-MMV007839) (Av 6hr): -0.2203 | Erythrose 4-phosphate log2 ratio (+MMV007839/-MMV007839) (Av 6hr): -0.7036 | FAD log2 ratio (+MMV007839/-MMV007839) (Av 6hr): -0.616 | FMN log2 ratio (+MMV007839/-MMV007839) (Av 6hr): -0.6137 | Farnesyl diphosphate log2 ratio (+MMV007839/-MMV007839) (Av 6hr): -0.2783 | Folate log2 ratio (+MMV007839/-MMV007839) (Av 6hr): -0.4942 | Fructose-1-6-bisphosphate log2 ratio (+MMV007839/-MMV007839) (Av 6hr): 0.3974 | Fructose-6-Phosphate log2 ratio (+MMV007839/-MMV007839) (Av 6hr): -0.1081 | GDP log2 ratio (+MMV007839/-MMV007839) (Av 6hr): -0.8963 | GDP-mannose log2 ratio (+MMV007839/-MMV007839) (Av 6hr): -1.076 | GMP log2 ratio (+MMV007839/-MMV007839) (Av 6hr): -0.8795 | GTP log2 ratio (+MMV007839/-MMV007839) (Av 6hr): -0.6956 | Geranylgeranyl pyrophosphate log2 ratio (+MMV007839/-MMV007839) (Av 6hr): -0.7121 | Gluconate log2 ratio (+MMV007839/-MMV007839) (Av 6hr): -0.0152 | Glucose-6-Phosphate log2 ratio (+MMV007839/-MMV007839) (Av 6hr): -0.5083 | Glutamate log2 ratio (+MMV007839/-MMV007839) (Av 6hr): -0.02563 | Glutamine log2 ratio (+MMV007839/-MMV007839) (Av 6hr): 1.089 | Glutathione disulfide log2 ratio (+MMV007839/-MMV007839) (Av 6hr): -0.1925 | Glutathione log2 ratio (+MMV007839/-MMV007839) (Av 6hr): -0.4326 | Glyceraldehyde 3-phosphate log2 ratio (+MMV007839/-MMV007839) (Av 6hr): -1.148 | Glycerone phosphate log2 ratio (+MMV007839/-MMV007839) (Av 6hr): -0.3794 | HLD log2 ratio (+MMV007839/-MMV007839) (Av 6hr): 0.5581 | HVDD log2 ratio (+MMV007839/-MMV007839) (Av 6hr): 0.02571 | Histidine log2 ratio (+MMV007839/-MMV007839) (Av 6hr): 1.263 | Homoserine log2 ratio (+MMV007839/-MMV007839) (Av 6hr): 0.6347 | Hydroxy-L-proline log2 ratio (+MMV007839/-MMV007839) (Av 6hr): -0.1227 | Hypoxanthine log2 ratio (+MMV007839/-MMV007839) (Av 6hr): 0.2056 | IDP log2 ratio (+MMV007839/-MMV007839) (Av 6hr): 0.2522 | IMP log2 ratio (+MMV007839/-MMV007839) (Av 6hr): -0.2109 | Inosine log2 ratio (+MMV007839/-MMV007839) (Av 6hr): 0.5174 | Isoleucine log2 ratio (+MMV007839/-MMV007839) (Av 6hr): 0.1143 | LD log2 ratio (+MMV007839/-MMV007839) (Av 6hr): 0.1248 | Lactate log2 ratio (+MMV007839/-MMV007839) (Av 6hr): 2.505 | Leucine log2 ratio (+MMV007839/-MMV007839) (Av 6hr): 0.06585 | Lysine log2 ratio (+MMV007839/-MMV007839) (Av 6hr): 1.1316 | Malate log2 ratio (+MMV007839/-MMV007839) (Av 6hr): -0.236 | Mannitol log2 ratio (+MMV007839/-MMV007839) (Av 6hr): -0.1109 | Methionine log2 ratio (+MMV007839/-MMV007839) (Av 6hr): -0.2224 | Myristic acid log2 ratio (+MMV007839/-MMV007839) (Av 6hr): -0.7184 | N-Acetyl-glutamate log2 ratio (+MMV007839/-MMV007839) (Av 6hr): -1.091 | N-Carbamoyl-L-aspartate log2 ratio (+MMV007839/-MMV007839) (Av 6hr): -1.386 | NAD+ log2 ratio (+MMV007839/-MMV007839) (Av 6hr): 0.1336
